Measured values from patent publication US20260176285A1, “SALT OF DIOXANE QUINOLINE COMPOUND, CRYSTAL FORM THEREOF, PREPARATION METHODS THEREFOR AND USES THEREOF” (Beijing Scitech-MQ Pharmaceuticals Limited, priority 2022, published 2026).

Assays:
Type in all cases: physicochemical
[1] = Hygroscopicity by dynamic moisture sorption (DVS); conditions: DVS, listed as Di-p-toluenesulfonate salt crystal form A-IV
Method: Dynamic moisture sorption (DVS): The curves were collected on a DVS Intrinsic of SMS (Surface Measurement Systems). At 25° C., the humidity range was 0% RH-95% RH, the step was 10% (the last step was 5%), and the dm/dt was 0.002%/min.
The hygroscopicity of the free compound of formula (I), mucate salt crystal form A-I, p-toluenesulfonate salt crystal forms A-II and B-III, di-p-toluenesulfonate salt crystal form A-IV and phosphate salt crystal form A-V was evaluated by dynamic moisture sorption instrument (DVS). Starting from 0% relative humidity (0% RH), the test collected the mass change percentage of the samples under constant temperature of 25° C. with humidity changes (0% RH-95% RH-0% RH).

[2] = Solid-state stability evaluation (XRPD, HPLC); conditions: listed as Di-p-toluenesulfonate salt crystal form A-IV
Method: The following 6 test samples were placed under 25° C./60% RH and 40° C./75% RH conditions for 1 week, and then the physical and chemical stability of the samples was tested by XRPD and HPLC.
At the same time, after the p-toluenesulfonate salt crystal form A-II and crystal form B-III solids were placed at 80° C. for 24 hours, the physical and chemical stability of the samples were tested by XRPD and HPLC.

[3] = Dynamic solubility in water, SGF, FaSSIF and FeSSIF; set-up: S (dynamic solubility): unit not given here; conditions: listed as Di-p-toluenesulfonate salt crystal form A-IV; for S (dynamic solubility): 37° C., feed 10 mg/mL
Method: Biological solvent Preparation • 1. […] 67.5 μL of concentrated hydrochloric acid (12 M) was added and the mixture was adjusted to a pH value of 1.8 with 1 M hydrochloric acid or 1 M NaOH solution. Purified water was added to make up to volume. • 2. Preparation of Fasted State Simulated Intestinal Fluid (FaSSIF): 0.17 g of anhydrous NaH2PO4, 0.021 g of NaOH, and 0.31 g of NaCl were weighed into a 50-mL volumetric flask. About 48 mL of purified water was added to dissolve the mixture completely, and the solution was adjusted to a pH value of 6.5 with 1 M hydrochloric acid or 1 M NaOH solution. Purified water was added to make up to volume. 0.11 g of SIF powder was added and dissolved completely. • 3. Preparation of Fed State Simulated Intestinal Fluid (FeSSIF): 0.41 mL of glacial acetic acid, 0.20 g of NaOH and 0.59 g of NaCl were weighed into a 50-mL volumetric flask. About 48 mL of purified water was added to dissolve the mixture completely, and the solution was adjusted to a pH value of 5.0 with 1 M hydrochloric acid or 1 M NaOH solution. Purified water was added to make up to volume. 0.56 g of SIF powder was added and dissolved completely.
The dynamic solubility of the free state, the mucate salt crystal form A-I, the p-toluenesulfonate salt crystal form A-II, the di-p-toluenesulfonate salt crystal form A-IV and the phosphate salt crystal form A-V of the compound of formula (I) in water and three biological solvents was evaluated.
The samples at each time point were centrifuged and filtered (0.45 μm PTFE filter head), and the HPLC concentration and pH value of the filtrate were determined.

O=C(Nc1ccc(F)cc1)C1(C(=O)Nc2ccc(Oc3ccnc4cc(OCCCN5CCOCC5)c5c(c34)OCCO5)c(F)c2)CC1 [Example 4, N-(3-fluoro-4-((5-(3-morpholinopropoxy)-2,3-dihydro-[1,4]dioxano[2,3-f]quinolin-10-yl)oxy)phenyl)-N-(4-fluorophenyl)cyclopropane-1,1-dicarboxamide]
Moisture adsorption (25° C./80% RH) ([1]; 25° C./80% RH): 3.70%
Hygroscopicity ([1]; 25° C.): Hygroscopic
Purity ([2]; 25° C./60% RH, 1 week): 99.19 area %
Purity/initial purity ([2]; 25° C./60% RH, 1 week): 100.0%
Purity ([2]; 40° C./75% RH, 1 week): 99.25 area %
Purity/initial purity ([2]; 40° C./75% RH, 1 week): 100.1%
Purity ([2]; Starting): 99.18 area %
S (dynamic solubility) ([3]; FaSSIF, 1 hour): 0.035
pH of the filtrate ([3]; FaSSIF, 1 hour): 5.6
S (dynamic solubility) ([3]; FaSSIF, 2 hours): 0.080
pH of the filtrate ([3]; FaSSIF, 2 hours): 5.2
S (dynamic solubility) ([3]; FaSSIF, 4 hours): 0.16
pH of the filtrate ([3]; FaSSIF, 4 hours): 5.0
S (dynamic solubility) ([3]; FaSSIF, 24 hours): 0.20
pH of the filtrate ([3]; FaSSIF, 24 hours): 5.0
S (dynamic solubility) ([3]; FeSSIF, 1 hour): 1.6
pH of the filtrate ([3]; FeSSIF, 1 hour): 4.9
S (dynamic solubility) ([3]; FeSSIF, 2 hours): 1.8
pH of the filtrate ([3]; FeSSIF, 2 hours): 4.8
S (dynamic solubility) ([3]; FeSSIF, 4 hours): 1.4
pH of the filtrate ([3]; FeSSIF, 4 hours): 4.8
S (dynamic solubility) ([3]; FeSSIF, 24 hours): 1.0
pH of the filtrate ([3]; FeSSIF, 24 hours): 4.9
S (dynamic solubility) ([3]; H2O, 1 hour): 2.9
pH of the filtrate ([3]; H2O, 1 hour): 3.7
S (dynamic solubility) ([3]; H2O, 2 hours): 2.9
pH of the filtrate ([3]; H2O, 2 hours): 3.9
S (dynamic solubility) ([3]; H2O, 4 hours): 2.8
pH of the filtrate ([3]; H2O, 4 hours): 3.8
S (dynamic solubility) ([3]; H2O, 24 hours): 2.7
pH of the filtrate ([3]; H2O, 24 hours): 3.8
S (dynamic solubility) ([3]; SGF, 1 hour): 4.5
pH of the filtrate ([3]; SGF, 1 hour): 1.9
S (dynamic solubility) ([3]; SGF, 2 hours): 4.6
pH of the filtrate ([3]; SGF, 2 hours): 1.9
S (dynamic solubility) ([3]; SGF, 4 hours): 4.3
pH of the filtrate ([3]; SGF, 4 hours): 1.9
S (dynamic solubility) ([3]; SGF, 24 hours): 4.2
pH of the filtrate ([3]; SGF, 24 hours): 1.9
